Source: ChEMBL document CHEMBL1201861, “Genomics of Drug Sensitity in Cancer screening data, Wellcome Trust Sanger Institute”

tested on: A-375; experiment: cells; format: functional, cell-based; conditions: Homo sapiens;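 also: growth inhibition of A375 cells, read out with a cell viability assay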
Description: SANGER: Inhibition of human A375 cell growth in a cell viability assay.

Question: How did the IC50 turn out when `O=C(NCCCNc1nc(Nc2cccc(NC(=O)N3CCCC3)c2)ncc1I)c1cccs1` [BX-795] was run?
Answer: 1.31 µM

tested on: PA-1; experiment: cells; format: functional, cell-based; conditions: Homo sapiens;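 also: IC50 for suppression of PA-1 cell proliferation, determined with a cell viability read-out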
Description: SANGER: Inhibition of human PA-1 cell growth in a cell viability assay.

Question: For `O=C(NCCCNc1nc(Nc2cccc(NC(=O)N3CCCC3)c2)ncc1I)c1cccs1` [BX-795], which IC50 is on record?
Answer: 0.804 µM

tested on: HT-29; experiment: cells; format: functional, cell-based; conditions: Homo sapiens;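 also: growth inhibition of human HT-29 cells, read out by a cell viability assay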
Description: SANGER: Inhibition of human HT-29 cell growth in a cell viability assay.

Question: With `O=C(NCCCNc1nc(Nc2cccc(NC(=O)N3CCCC3)c2)ncc1I)c1cccs1` [BX-795] as the compound, how does the IC50 read?
Answer: > 5 µM

tested on: HCT-116; experiment: cells; format: functional, cell-based; conditions: Homo sapiens
Description: SANGER: Inhibition of human HCT-116 cell growth in a cell viability assay.

Question: Which IC50 does the source give for `O=C(NCCCNc1nc(Nc2cccc(NC(=O)N3CCCC3)c2)ncc1I)c1cccs1` [BX-795] here?
Answer: 4.99 µM

tested on: CAL-85-1; experiment: cells; format: functional, cell-based; conditions: Homo sapiens;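 also: growth inhibition of human CAL-85-1 cells, read out with a cell viability assay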
Description: SANGER: Inhibition of human CAL-85-1 cell growth in a cell viability assay.

Question: For `O=C(NCCCNc1nc(Nc2cccc(NC(=O)N3CCCC3)c2)ncc1I)c1cccs1` [BX-795], which IC50 is on record?
Answer: > 5 µM

tested on: NCI-H596; experiment: cells; format: functional, cell-based; conditions: Homo sapiens;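 also: growth inhibition of NCI-H596 cells, read out with a cell viability assay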
Description: SANGER: Inhibition of human NCI-H596 cell growth in a cell viability assay.

Question: Which IC50 does the source give for `O=C(NCCCNc1nc(Nc2cccc(NC(=O)N3CCCC3)c2)ncc1I)c1cccs1` [BX-795] here?
Answer: > 5 µM

tested on: KYSE-150 cell line; experiment: cells; format: functional, cell-based; conditions: Homo sapiens;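 also: growth inhibition of human KYSE-150 cells, read out with a cell viability assay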
Description: SANGER: Inhibition of human KYSE-150 cell growth in a cell viability assay.

Question: `O=C(NCCCNc1nc(Nc2cccc(NC(=O)N3CCCC3)c2)ncc1I)c1cccs1` [BX-795] was tested. Which IC50 did it give?
Answer: 2.73 µM

tested on: UMUC3; experiment: cells; format: functional, cell-based; conditions: Homo sapiens;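 also: growth inhibition of human UM-UC-3 cells, read out with a cell viability assay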
Description: SANGER: Inhibition of human UM-UC-3 cell growth in a cell viability assay.

Question: How did the IC50 turn out when `O=C(NCCCNc1nc(Nc2cccc(NC(=O)N3CCCC3)c2)ncc1I)c1cccs1` [BX-795] was run?
Answer: > 5 µM

tested on: SK-HEP1; experiment: cells; format: functional, cell-based, SK-HEP-1; conditions: Homo sapiens;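 also: cell viability readout used to quantify reduction in proliferation of human SK-HEP-1 cells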
Description: SANGER: Inhibition of human SK-HEP-1 cell growth in a cell viability assay.

Question: With `O=C(NCCCNc1nc(Nc2cccc(NC(=O)N3CCCC3)c2)ncc1I)c1cccs1` [BX-795] as the compound, how does the IC50 read?
Answer: 2.97 µM

tested on: LN-405; experiment: cells; format: functional, cell-based; conditions: Homo sapiens
Description: SANGER: Inhibition of human LN-405 cell growth in a cell viability assay.

Question: Which IC50 does the source give for `O=C(NCCCNc1nc(Nc2cccc(NC(=O)N3CCCC3)c2)ncc1I)c1cccs1` [BX-795] here?
Answer: > 5 µM

tested on: YKG-1; experiment: cells; format: functional, cell-based; conditions: Homo sapiens;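 also: cell growth inhibition, read out with a viability assay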
Description: SANGER: Inhibition of human YKG-1 cell growth in a cell viability assay.

Question: With `O=C(NCCCNc1nc(Nc2cccc(NC(=O)N3CCCC3)c2)ncc1I)c1cccs1` [BX-795] as the compound, how does the IC50 read?
Answer: 1.77 µM

tested on: HCC1937; experiment: cells; format: functional, cell-based; conditions: Homo sapiens;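 also: growth inhibition measured with a cell viability read-out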
Description: SANGER: Inhibition of human HCC1937 cell growth in a cell viability assay.

Question: With `O=C(NCCCNc1nc(Nc2cccc(NC(=O)N3CCCC3)c2)ncc1I)c1cccs1` [BX-795] as the compound, how does the IC50 read?
Answer: > 5 µM

tested on: BXPC-3; experiment: cells; format: functional, cell-based; conditions: Homo sapiens;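 also: growth inhibition of human BxPC-3 cells, read out by a cell viability assay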
Description: SANGER: Inhibition of human BxPC-3 cell growth in a cell viability assay.

Question: How did the IC50 turn out when `O=C(NCCCNc1nc(Nc2cccc(NC(=O)N3CCCC3)c2)ncc1I)c1cccs1` [BX-795] was run?
Answer: > 5 µM

tested on: BPH-1; experiment: cells; format: functional, cell-based; conditions: Homo sapiens;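 also: cell viability assay measuring growth inhibition of human BPH-1 cells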
Description: SANGER: Inhibition of human BPH-1 cell growth in a cell viability assay.

Question: For `O=C(NCCCNc1nc(Nc2cccc(NC(=O)N3CCCC3)c2)ncc1I)c1cccs1` [BX-795], which IC50 is on record?
Answer: 3.14 µM

tested on: VM-CUB-1; experiment: cells; format: functional, cell-based; conditions: Homo sapiens;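 also: cell viability assay measuring growth inhibition of the human VM-CUB-1 cell line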
Description: SANGER: Inhibition of human VM-CUB-1 cell growth in a cell viability assay.

Question: `O=C(NCCCNc1nc(Nc2cccc(NC(=O)N3CCCC3)c2)ncc1I)c1cccs1` [BX-795] was tested. Which IC50 did it give?
Answer: 2.04 µM

tested on: SK-MEL-24; experiment: cells; format: functional, cell-based; conditions: Homo sapiens;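 also: growth inhibition read out by a cell viability assay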
Description: SANGER: Inhibition of human SK-MEL-24 cell growth in a cell viability assay.

Question: `O=C(NCCCNc1nc(Nc2cccc(NC(=O)N3CCCC3)c2)ncc1I)c1cccs1` [BX-795] was tested. Which IC50 did it give?
Answer: > 5 µM

tested on: G-402; experiment: cells; format: functional, cell-based; conditions: Homo sapiens
Description: SANGER: Inhibition of human G-402 cell growth in a cell viability assay.

Question: How did the IC50 turn out when `O=C(NCCCNc1nc(Nc2cccc(NC(=O)N3CCCC3)c2)ncc1I)c1cccs1` [BX-795] was run?
Answer: 1.47 µM

tested on: KYSE-140; experiment: cells; format: functional, cell-based; conditions: Homo sapiens;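 also: cell viability assay measuring growth inhibition in human KYSE-140 cells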
Description: SANGER: Inhibition of human KYSE-140 cell growth in a cell viability assay.

Question: For `O=C(NCCCNc1nc(Nc2cccc(NC(=O)N3CCCC3)c2)ncc1I)c1cccs1` [BX-795], which IC50 is on record?
Answer: 3.72 µM

tested on: KYSE-510; experiment: cells; format: functional, cell-based; conditions: Homo sapiens;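 also: cell viability readout used to measure how strongly growth of the cell line is suppressed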
Description: SANGER: Inhibition of human KYSE-510 cell growth in a cell viability assay.

Question: For `O=C(NCCCNc1nc(Nc2cccc(NC(=O)N3CCCC3)c2)ncc1I)c1cccs1` [BX-795], which IC50 is on record?
Answer: 4.96 µM

tested on: SW13; experiment: cells; format: functional, cell-based; conditions: Homo sapiens;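 also: IC50 is inhibition of SW13 cell growth, read out with a cell viability assay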
Description: SANGER: Inhibition of human SW13 cell growth in a cell viability assay.

Question: `O=C(NCCCNc1nc(Nc2cccc(NC(=O)N3CCCC3)c2)ncc1I)c1cccs1` [BX-795] was tested. Which IC50 did it give?
Answer: > 5 µM

tested on: NCI-H1793; experiment: cells; format: functional, cell-based; conditions: Homo sapiens;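 also: cell growth inhibition, read out by a cell viability assay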
Description: SANGER: Inhibition of human NCI-H1793 cell growth in a cell viability assay.

Question: With `O=C(NCCCNc1nc(Nc2cccc(NC(=O)N3CCCC3)c2)ncc1I)c1cccs1` [BX-795] as the compound, how does the IC50 read?
Answer: > 5 µM

tested on: NCI-H2452; experiment: cells; format: functional, cell-based; conditions: Homo sapiens;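 also: growth inhibition of NCI-H2452 cells, read out with a cell viability assay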
Description: SANGER: Inhibition of human NCI-H2452 cell growth in a cell viability assay.

Question: `O=C(NCCCNc1nc(Nc2cccc(NC(=O)N3CCCC3)c2)ncc1I)c1cccs1` [BX-795] was tested. Which IC50 did it give?
Answer: 4.83 µM

tested on: NCI-H661; experiment: cells; format: functional, cell-based; conditions: Homo sapiens;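 also: cell viability assay read-out, IC50 being the concentration that inhibits growth of the cells by half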
Description: SANGER: Inhibition of human NCI-H661 cell growth in a cell viability assay.

Question: With `O=C(NCCCNc1nc(Nc2cccc(NC(=O)N3CCCC3)c2)ncc1I)c1cccs1` [BX-795] as the compound, how does the IC50 read?
Answer: > 5 µM

tested on: CAL-54; experiment: cells; format: functional, cell-based; conditions: Homo sapiens;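 also: growth inhibition of CAL-54 cells, read out by a viability measurement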
Description: SANGER: Inhibition of human CAL-54 cell growth in a cell viability assay.

Question: With `O=C(NCCCNc1nc(Nc2cccc(NC(=O)N3CCCC3)c2)ncc1I)c1cccs1` [BX-795] as the compound, how does the IC50 read?
Answer: > 5 µM

tested on: C-33-A; experiment: cells; format: functional, cell-based; conditions: Homo sapiens;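 also: cell viability assay measuring growth inhibition of C-33-A cells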
Description: SANGER: Inhibition of human C-33-A cell growth in a cell viability assay.

Question: For `O=C(NCCCNc1nc(Nc2cccc(NC(=O)N3CCCC3)c2)ncc1I)c1cccs1` [BX-795], which IC50 is on record?
Answer: > 5 µM

tested on: JEG-3; experiment: cells; format: functional, cell-based; conditions: Homo sapiens;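 also: growth inhibition of human JEG-3 cells, read out with a cell viability assay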
Description: SANGER: Inhibition of human JEG-3 cell growth in a cell viability assay.

Question: For `O=C(NCCCNc1nc(Nc2cccc(NC(=O)N3CCCC3)c2)ncc1I)c1cccs1` [BX-795], which IC50 is on record?
Answer: > 5 µM

tested on: DMS-273; experiment: cells; format: functional, cell-based; conditions: Homo sapiens
Description: SANGER: Inhibition of human DMS-273 cell growth in a cell viability assay.

Question: How did the IC50 turn out when `O=C(NCCCNc1nc(Nc2cccc(NC(=O)N3CCCC3)c2)ncc1I)c1cccs1` [BX-795] was run?
Answer: > 5 µM

tested on: CAL-51; experiment: cells; format: functional, cell-based; conditions: Homo sapiens;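 also: human CAL-51 cell line, growth inhibition read out via a cell viability assay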
Description: SANGER: Inhibition of human CAL-51 cell growth in a cell viability assay.

Question: Which IC50 does the source give for `O=C(NCCCNc1nc(Nc2cccc(NC(=O)N3CCCC3)c2)ncc1I)c1cccs1` [BX-795] here?
Answer: 1.22 µM

tested on: NCI-H2122; experiment: cells; format: functional, cell-based; conditions: Homo sapiens;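 also: growth inhibition of the cells, read out with a cell viability assay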
Description: SANGER: Inhibition of human NCI-H2122 cell growth in a cell viability assay.

Question: `O=C(NCCCNc1nc(Nc2cccc(NC(=O)N3CCCC3)c2)ncc1I)c1cccs1` [BX-795] was tested. Which IC50 did it give?
Answer: > 5 µM

tested on: ME-180; experiment: cells; format: functional, cell-based; conditions: Homo sapiens;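 also: cell viability assay measuring growth inhibition of ME-180 cells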
Description: SANGER: Inhibition of human ME-180 cell growth in a cell viability assay.

Question: For `O=C(NCCCNc1nc(Nc2cccc(NC(=O)N3CCCC3)c2)ncc1I)c1cccs1` [BX-795], which IC50 is on record?
Answer: 3.39 µM

tested on: HCC 2998; experiment: cells; format: functional, cell-based; conditions: Homo sapiens;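 also: growth inhibition of human HCC2998 cells, measured with a cell viability read-out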
Description: SANGER: Inhibition of human HCC2998 cell growth in a cell viability assay.

Question: With `O=C(NCCCNc1nc(Nc2cccc(NC(=O)N3CCCC3)c2)ncc1I)c1cccs1` [BX-795] as the compound, how does the IC50 read?
Answer: > 5 µM

tested on: A2780; experiment: cells; format: functional, cell-based; conditions: Homo sapiens;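 also: growth inhibition of A2780 cells, read out with a cell viability assay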
Description: SANGER: Inhibition of human A2780 cell growth in a cell viability assay.

Question: Which IC50 does the source give for `O=C(NCCCNc1nc(Nc2cccc(NC(=O)N3CCCC3)c2)ncc1I)c1cccs1` [BX-795] here?
Answer: > 5 µM

tested on: HSC-2; experiment: cells; format: functional, cell-based; conditions: Homo sapiens;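 also: growth inhibition of human HSC-2 cells, read out by a cell viability assay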
Description: SANGER: Inhibition of human HSC-2 cell growth in a cell viability assay.

Question: For `O=C(NCCCNc1nc(Nc2cccc(NC(=O)N3CCCC3)c2)ncc1I)c1cccs1` [BX-795], which IC50 is on record?
Answer: > 5 µM

tested on: SW1573; experiment: cells; format: functional, cell-based; conditions: Homo sapiens;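 also: growth inhibition of SW1573 cells, read out with a cell viability assay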
Description: SANGER: Inhibition of human SW1573 cell growth in a cell viability assay.

Question: For `O=C(NCCCNc1nc(Nc2cccc(NC(=O)N3CCCC3)c2)ncc1I)c1cccs1` [BX-795], which IC50 is on record?
Answer: > 5 µM

tested on: ABC-1; experiment: cells; format: functional, cell-based; conditions: Homo sapiens;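 also: growth inhibition of human ABC-1 cells, read out by a cell viability assay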
Description: SANGER: Inhibition of human ABC-1 cell growth in a cell viability assay.

Question: Which IC50 does the source give for `O=C(NCCCNc1nc(Nc2cccc(NC(=O)N3CCCC3)c2)ncc1I)c1cccs1` [BX-795] here?
Answer: 4.81 µM

tested on: GCT; experiment: cells; format: functional, cell-based; conditions: Homo sapiens;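 also: GCT cell line proliferation inhibition, read out with a cell viability assay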
Description: SANGER: Inhibition of human GCT cell growth in a cell viability assay.

Question: For `O=C(NCCCNc1nc(Nc2cccc(NC(=O)N3CCCC3)c2)ncc1I)c1cccs1` [BX-795], which IC50 is on record?
Answer: > 5 µM

tested on: FTC-133; experiment: cells; format: functional, cell-based; conditions: Homo sapiens

Question: With `O=C(NCCCNc1nc(Nc2cccc(NC(=O)N3CCCC3)c2)ncc1I)c1cccs1` [BX-795] as the compound, how does the IC50 read?
Answer: 3.02 µM

tested on: A673; experiment: cells; format: functional, cell-based; conditions: Homo sapiens;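 also: growth inhibition of human A673 cells, read out through a cell viability assay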
Description: SANGER: Inhibition of human A673 cell growth in a cell viability assay.

Question: With `O=C(NCCCNc1nc(Nc2cccc(NC(=O)N3CCCC3)c2)ncc1I)c1cccs1` [BX-795] as the compound, how does the IC50 read?
Answer: > 5 µM

tested on: NCI-H1651; experiment: cells; format: functional, cell-based; conditions: Homo sapiens;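 also: Read-out is a cell viability assay, with IC50 expressing inhibition of NCI-H1651 cell growth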
Description: SANGER: Inhibition of human NCI-H1651 cell growth in a cell viability assay.

Question: For `O=C(NCCCNc1nc(Nc2cccc(NC(=O)N3CCCC3)c2)ncc1I)c1cccs1` [BX-795], which IC50 is on record?
Answer: > 5 µM

tested on: MKN-7; experiment: cells; format: functional, cell-based; conditions: Homo sapiens;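 also: growth inhibition of MKN-7 cells, read out with a cell viability assay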
Description: SANGER: Inhibition of human MKN7 cell growth in a cell viability assay.

Question: Which IC50 does the source give for `O=C(NCCCNc1nc(Nc2cccc(NC(=O)N3CCCC3)c2)ncc1I)c1cccs1` [BX-795] here?
Answer: > 5 µM

tested on: SW1783; experiment: cells; format: functional, cell-based; conditions: Homo sapiens;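 also: cell growth inhibition measured with a viability assay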
Description: SANGER: Inhibition of human SW1783 cell growth in a cell viability assay.

Question: For `O=C(NCCCNc1nc(Nc2cccc(NC(=O)N3CCCC3)c2)ncc1I)c1cccs1` [BX-795], which IC50 is on record?
Answer: 3.54 µM

tested on: 786-0; experiment: cells; format: functional, cell-based; conditions: Homo sapiens
Description: SANGER: Inhibition of human 786-0 cell growth in a cell viability assay.

Question: How did the IC50 turn out when `O=C(NCCCNc1nc(Nc2cccc(NC(=O)N3CCCC3)c2)ncc1I)c1cccs1` [BX-795] was run?
Answer: > 5 µM

tested on: CAL-33; experiment: cells; format: functional, cell-based; conditions: Homo sapiens;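 also: growth inhibition of CAL-33 cells, read out with a cell viability assay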
Description: SANGER: Inhibition of human CAL-33 cell growth in a cell viability assay.

Question: Which IC50 does the source give for `O=C(NCCCNc1nc(Nc2cccc(NC(=O)N3CCCC3)c2)ncc1I)c1cccs1` [BX-795] here?
Answer: > 5 µM

tested on: NCI-H2030; experiment: cells; format: functional, cell-based; conditions: Homo sapiens;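 also: growth inhibition of human NCI-H2030 cells, read out by a cell viability assay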
Description: SANGER: Inhibition of human NCI-H2030 cell growth in a cell viability assay.

Question: With `O=C(NCCCNc1nc(Nc2cccc(NC(=O)N3CCCC3)c2)ncc1I)c1cccs1` [BX-795] as the compound, how does the IC50 read?
Answer: > 5 µM
